Data: ChEMBL document CHEMBL1201862, “PubChem BioAssay data set” (2004)
Active and inactive are the calls of the source.

How the values were obtained:
[1] = Counterscreen for AddAB inhibitors: absorbance-based bacterial cell-based high throughput dose response assay for inhibitors of bacterial viability. [Related pubchem assays (depositor defined):AID435030, AID449728, AID449731, AID488942, AID488955, AID488956]; type: functional
Exodeoxyribonuclease V = biological target: T1, Exodeoxyribonuclease V (Escherichia coli (strain K12), UniProt P04993+P07648+P08394); assay: E. coli RecBCD inhibitors, dose response, counter-screen for AddAB inhibitor project, absorbance, V66 E. coli, mutant T4 phage (AID 492957); type: functional, cell-based, Escherichia coli str. K-12 substr. MG1655
T1 sequence (P04993 whole entry): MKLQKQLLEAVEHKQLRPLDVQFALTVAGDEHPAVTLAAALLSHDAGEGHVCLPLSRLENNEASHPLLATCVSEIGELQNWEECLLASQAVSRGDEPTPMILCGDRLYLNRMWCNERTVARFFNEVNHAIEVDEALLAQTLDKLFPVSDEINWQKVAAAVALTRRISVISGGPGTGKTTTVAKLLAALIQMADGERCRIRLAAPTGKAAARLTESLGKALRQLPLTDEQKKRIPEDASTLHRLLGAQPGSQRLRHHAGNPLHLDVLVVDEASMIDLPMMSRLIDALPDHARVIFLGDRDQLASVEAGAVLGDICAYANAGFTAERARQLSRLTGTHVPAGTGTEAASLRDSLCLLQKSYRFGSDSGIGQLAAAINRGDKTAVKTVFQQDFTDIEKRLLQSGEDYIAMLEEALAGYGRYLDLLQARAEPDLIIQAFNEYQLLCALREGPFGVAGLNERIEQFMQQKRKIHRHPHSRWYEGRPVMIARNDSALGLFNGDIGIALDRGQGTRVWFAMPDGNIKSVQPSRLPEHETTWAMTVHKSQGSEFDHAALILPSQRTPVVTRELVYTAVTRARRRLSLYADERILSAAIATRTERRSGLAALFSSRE
T1 sequence (P07648 whole entry): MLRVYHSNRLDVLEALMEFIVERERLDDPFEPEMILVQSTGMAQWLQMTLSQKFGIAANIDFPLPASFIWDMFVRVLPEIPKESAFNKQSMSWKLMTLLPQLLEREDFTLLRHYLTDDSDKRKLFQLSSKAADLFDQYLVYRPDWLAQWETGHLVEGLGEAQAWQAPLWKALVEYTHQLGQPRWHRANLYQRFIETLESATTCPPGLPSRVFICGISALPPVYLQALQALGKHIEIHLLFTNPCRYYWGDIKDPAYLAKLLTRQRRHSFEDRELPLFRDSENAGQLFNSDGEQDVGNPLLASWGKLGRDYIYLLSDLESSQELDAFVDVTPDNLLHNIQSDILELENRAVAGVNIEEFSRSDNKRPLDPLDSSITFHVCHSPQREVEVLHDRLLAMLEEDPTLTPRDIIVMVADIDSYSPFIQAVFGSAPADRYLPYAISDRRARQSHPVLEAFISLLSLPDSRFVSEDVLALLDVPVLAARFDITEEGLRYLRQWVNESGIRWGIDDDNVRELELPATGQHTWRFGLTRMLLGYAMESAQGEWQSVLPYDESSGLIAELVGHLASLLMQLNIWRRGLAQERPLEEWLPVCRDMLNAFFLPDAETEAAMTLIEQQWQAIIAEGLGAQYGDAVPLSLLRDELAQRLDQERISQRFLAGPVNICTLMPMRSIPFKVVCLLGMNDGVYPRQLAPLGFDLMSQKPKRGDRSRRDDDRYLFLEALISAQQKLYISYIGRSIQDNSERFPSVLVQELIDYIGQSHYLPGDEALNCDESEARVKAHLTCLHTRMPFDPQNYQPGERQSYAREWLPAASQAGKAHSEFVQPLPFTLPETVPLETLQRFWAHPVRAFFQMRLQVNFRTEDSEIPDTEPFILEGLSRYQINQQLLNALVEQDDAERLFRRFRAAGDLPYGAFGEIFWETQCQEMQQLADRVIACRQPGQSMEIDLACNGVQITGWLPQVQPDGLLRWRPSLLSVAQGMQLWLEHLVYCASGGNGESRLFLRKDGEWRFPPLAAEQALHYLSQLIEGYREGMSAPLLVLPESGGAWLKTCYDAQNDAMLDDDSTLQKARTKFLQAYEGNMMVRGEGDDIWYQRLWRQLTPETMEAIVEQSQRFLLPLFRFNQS
T1 sequence (P08394 whole entry): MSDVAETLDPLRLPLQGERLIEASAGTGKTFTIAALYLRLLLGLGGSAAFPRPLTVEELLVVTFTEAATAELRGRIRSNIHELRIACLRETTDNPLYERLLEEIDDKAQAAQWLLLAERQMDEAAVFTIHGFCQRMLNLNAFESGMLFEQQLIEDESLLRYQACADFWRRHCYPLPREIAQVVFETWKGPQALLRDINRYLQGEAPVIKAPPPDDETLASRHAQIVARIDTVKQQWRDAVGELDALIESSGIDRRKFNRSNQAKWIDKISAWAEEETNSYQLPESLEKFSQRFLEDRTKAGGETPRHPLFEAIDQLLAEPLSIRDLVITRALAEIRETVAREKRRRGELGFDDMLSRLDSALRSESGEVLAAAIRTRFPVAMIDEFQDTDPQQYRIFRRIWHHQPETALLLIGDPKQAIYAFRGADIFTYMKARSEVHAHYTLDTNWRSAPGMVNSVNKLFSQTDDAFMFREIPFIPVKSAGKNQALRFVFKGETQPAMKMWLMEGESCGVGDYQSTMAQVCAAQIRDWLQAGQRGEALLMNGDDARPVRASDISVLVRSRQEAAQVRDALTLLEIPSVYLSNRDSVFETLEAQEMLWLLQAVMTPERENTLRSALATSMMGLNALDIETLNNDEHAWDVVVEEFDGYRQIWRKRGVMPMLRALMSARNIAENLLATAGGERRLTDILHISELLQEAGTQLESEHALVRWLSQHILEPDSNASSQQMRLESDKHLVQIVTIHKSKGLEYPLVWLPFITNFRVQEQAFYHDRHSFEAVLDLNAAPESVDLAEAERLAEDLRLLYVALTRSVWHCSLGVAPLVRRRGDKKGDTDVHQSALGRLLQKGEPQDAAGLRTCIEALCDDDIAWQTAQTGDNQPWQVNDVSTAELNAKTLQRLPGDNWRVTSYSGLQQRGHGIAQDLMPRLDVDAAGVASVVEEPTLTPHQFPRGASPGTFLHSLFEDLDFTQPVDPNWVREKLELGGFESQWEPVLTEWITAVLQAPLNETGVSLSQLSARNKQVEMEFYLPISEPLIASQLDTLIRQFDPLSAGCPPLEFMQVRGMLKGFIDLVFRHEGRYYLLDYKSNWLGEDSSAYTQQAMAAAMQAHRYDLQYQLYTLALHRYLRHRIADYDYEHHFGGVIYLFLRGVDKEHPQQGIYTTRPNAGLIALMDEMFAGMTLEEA

[2] = biological target: T2, Zinc finger protein mex-5 (Caenorhabditis elegans, UniProt Q9XUB2); assay: MEX-5/TCR-2 RNA interaction inhibitors, dose response, biochemical, C. elegans, fluorescence polarization (AID 1960)
T2 sequence (Q9XUB2 whole entry): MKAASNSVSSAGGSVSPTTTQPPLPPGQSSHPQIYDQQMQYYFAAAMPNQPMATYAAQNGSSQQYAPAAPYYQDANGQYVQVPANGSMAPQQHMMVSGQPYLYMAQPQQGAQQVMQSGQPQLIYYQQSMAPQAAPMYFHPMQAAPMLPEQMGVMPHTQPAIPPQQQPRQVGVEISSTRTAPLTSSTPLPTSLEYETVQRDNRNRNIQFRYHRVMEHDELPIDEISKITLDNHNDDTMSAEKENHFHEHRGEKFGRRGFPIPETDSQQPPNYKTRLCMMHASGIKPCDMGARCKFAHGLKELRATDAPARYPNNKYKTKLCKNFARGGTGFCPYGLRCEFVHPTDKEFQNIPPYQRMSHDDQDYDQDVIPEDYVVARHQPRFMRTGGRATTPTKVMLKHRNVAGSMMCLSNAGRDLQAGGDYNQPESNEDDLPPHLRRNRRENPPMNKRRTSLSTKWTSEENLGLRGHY

Genome polyprotein = Genome polyprotein (dengue virus type 2, UniProt P29990); assay: Dengue-2 NS5 methyltransferase inhibitors, primary screen, biochemical, confirmation dose response (AID 588689); type: functional
Keap1/Nrf2 = Keap1/Nrf2 (Homo sapiens, UniProt Q14145); assay: Keap1-Nrf2 protein-protein interaction inhibitors, dose response, biochemical, fluorescence polarization, cherry-picked samples (AID 588683)
[3] = biological target: T3, RNA-binding protein pos-1 (Caenorhabditis elegans, UniProt G5EF15); assay: inhibitors of POS-1/mex-3 RNA binding, dose response, biochemical, fluorescence polarization (AID 1964);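 also: purified POS-1 fused to maltose binding protein made in E. coli; potency of compounds blocking POS-1 binding to fluorescent RNA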
T3 sequence (G5EF15 whole entry): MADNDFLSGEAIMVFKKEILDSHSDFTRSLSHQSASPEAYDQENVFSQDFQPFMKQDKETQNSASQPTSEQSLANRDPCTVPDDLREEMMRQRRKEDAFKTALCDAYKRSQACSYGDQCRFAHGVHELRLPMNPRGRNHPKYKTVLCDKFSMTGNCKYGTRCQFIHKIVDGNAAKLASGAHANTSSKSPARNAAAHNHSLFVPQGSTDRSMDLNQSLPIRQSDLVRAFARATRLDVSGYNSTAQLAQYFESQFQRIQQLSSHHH

[4] = insulin promoter down-regulators in MIN6 cells, imaging, high-content screening, mouse beta cells (AID 1628); type: functional
[5] = cytotoxicity in MIN6 insulinoma cells, dose response, cytotoxicity control, cell-based, mouse insulinoma (AID 2122); type: functional;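 also: confirmatory high-throughput counterscreen run to flag cytotoxic compounds; mouse MIN-6 beta cells carrying an insulin promoter eGFP reporter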
HEK293 [6] = assay: cells; settings: Homo sapiens
HEK293 [7] = assay: cells; settings: Homo sapiens; remark: listed apart in the source
[8] = growth suppression of PTEN-null colon cells, dose response, cell-based, HCT116 PTEN knockout (AID 1047); type: functional;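 also: HCT116 colon tumor cells with PTEN knocked out; cells exposed to compound for 60 hours before readout; potency for loss of cell viability measured by luminescence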
[9] = system: Streptococcus sp. 'group A'; assay: growth inhibition of control SK(-) GAS strain, dose response, counter-screen for streptokinase expression inhibitor project, luminescence, kanamycin, BacTiterGlo, confirmation (AID 1900); type: functional, organism-based
[10] = inhibitors of intracellular T. cruzi replication, confirmation, NIH3T3 host cells, beta-gal luminescence (AID 2044); type: functional, cell-based;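 also: intracellular parasites grown in NIH/3T3 mouse fibroblasts as host cells; luminescent beta-galactosidase reporter signal from transgenic T. cruzi replicating inside host cells; inhibitors lower the luminescence signal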
[11] = growth suppression of beta-catenin-knockout colon cells, dose response, cell-based, HCT116, human colon tumor (AID 1045); type: functional;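 also: HCT116 colon tumor cells with beta catenin knocked out; cells exposed to compound for 60 hours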
Streptococcus = assay: Group A Streptococcus viability loss, dose response, counter-screen for streptokinase expression inhibitor project, luminescence, BacTiterGlo (AID 1915); type: functional, organism-based;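 also: potency for reduction of bacterial viability or growth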
Vero = Vero cell cytotoxicity, cytotoxicity control for flavivirus capping enzyme inhibitors (AID 588742); type: functional; settings: Chlorocebus sabaeus
[12] = cytotoxicity toward NIH3T3 fibroblasts, dose response, counter-screen, cell-based, ATP luminescence, mouse fibroblasts (AID 2010); type: functional;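 also: cells exposed to compound for about 90 hours before reading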
Streptokinase A = biological target: T4, Streptokinase A (Streptococcus pyogenes serotype M1, UniProt P10520); assay: S. pyogenes streptokinase expression inhibitors, potency, dose response, plasminogen activation absorbance, OD405 (AID 1914); type: functional, Streptococcus pyogenes M1 GAS;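 also: secreted streptokinase activity via plasminogen activation per viability signal from cell pellet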
T4 sequence (P10520 whole entry): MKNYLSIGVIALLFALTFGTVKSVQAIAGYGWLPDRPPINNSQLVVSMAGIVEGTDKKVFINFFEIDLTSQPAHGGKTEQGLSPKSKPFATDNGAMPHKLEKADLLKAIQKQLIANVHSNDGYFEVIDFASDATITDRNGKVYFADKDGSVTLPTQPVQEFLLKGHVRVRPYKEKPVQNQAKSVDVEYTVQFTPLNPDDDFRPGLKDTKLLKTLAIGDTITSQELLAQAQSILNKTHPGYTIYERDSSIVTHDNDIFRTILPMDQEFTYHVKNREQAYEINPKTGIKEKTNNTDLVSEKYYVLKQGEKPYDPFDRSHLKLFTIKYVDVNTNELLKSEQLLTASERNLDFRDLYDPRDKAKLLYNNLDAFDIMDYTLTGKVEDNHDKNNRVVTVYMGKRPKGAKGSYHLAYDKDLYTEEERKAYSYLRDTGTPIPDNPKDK

NS3 = NS3 (Hepatitis C virus, UniProt A3EZJ3); assay: PubChem AID 2173; design: species or system Hepacivirus hominis
NS3, sequence (A3EZJ3 whole entry): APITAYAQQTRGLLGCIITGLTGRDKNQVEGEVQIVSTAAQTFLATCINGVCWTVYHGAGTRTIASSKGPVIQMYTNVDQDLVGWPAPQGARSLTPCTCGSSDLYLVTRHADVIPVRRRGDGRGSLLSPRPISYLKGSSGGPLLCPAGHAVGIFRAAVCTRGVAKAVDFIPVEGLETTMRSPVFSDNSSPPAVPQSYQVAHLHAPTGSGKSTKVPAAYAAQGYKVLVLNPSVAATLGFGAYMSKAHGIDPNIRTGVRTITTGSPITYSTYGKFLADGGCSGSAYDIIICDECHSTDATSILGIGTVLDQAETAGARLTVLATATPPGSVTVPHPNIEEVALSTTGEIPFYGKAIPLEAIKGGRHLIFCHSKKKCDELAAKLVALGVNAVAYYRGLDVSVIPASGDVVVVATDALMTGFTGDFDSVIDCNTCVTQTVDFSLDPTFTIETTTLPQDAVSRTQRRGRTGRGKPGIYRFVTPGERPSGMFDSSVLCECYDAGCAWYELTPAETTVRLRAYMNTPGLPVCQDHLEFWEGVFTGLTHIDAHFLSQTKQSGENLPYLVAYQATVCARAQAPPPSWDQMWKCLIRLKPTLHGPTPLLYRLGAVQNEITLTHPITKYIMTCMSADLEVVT

Genome polyprotein, sequence (P29990 2492-3391 limits assumed): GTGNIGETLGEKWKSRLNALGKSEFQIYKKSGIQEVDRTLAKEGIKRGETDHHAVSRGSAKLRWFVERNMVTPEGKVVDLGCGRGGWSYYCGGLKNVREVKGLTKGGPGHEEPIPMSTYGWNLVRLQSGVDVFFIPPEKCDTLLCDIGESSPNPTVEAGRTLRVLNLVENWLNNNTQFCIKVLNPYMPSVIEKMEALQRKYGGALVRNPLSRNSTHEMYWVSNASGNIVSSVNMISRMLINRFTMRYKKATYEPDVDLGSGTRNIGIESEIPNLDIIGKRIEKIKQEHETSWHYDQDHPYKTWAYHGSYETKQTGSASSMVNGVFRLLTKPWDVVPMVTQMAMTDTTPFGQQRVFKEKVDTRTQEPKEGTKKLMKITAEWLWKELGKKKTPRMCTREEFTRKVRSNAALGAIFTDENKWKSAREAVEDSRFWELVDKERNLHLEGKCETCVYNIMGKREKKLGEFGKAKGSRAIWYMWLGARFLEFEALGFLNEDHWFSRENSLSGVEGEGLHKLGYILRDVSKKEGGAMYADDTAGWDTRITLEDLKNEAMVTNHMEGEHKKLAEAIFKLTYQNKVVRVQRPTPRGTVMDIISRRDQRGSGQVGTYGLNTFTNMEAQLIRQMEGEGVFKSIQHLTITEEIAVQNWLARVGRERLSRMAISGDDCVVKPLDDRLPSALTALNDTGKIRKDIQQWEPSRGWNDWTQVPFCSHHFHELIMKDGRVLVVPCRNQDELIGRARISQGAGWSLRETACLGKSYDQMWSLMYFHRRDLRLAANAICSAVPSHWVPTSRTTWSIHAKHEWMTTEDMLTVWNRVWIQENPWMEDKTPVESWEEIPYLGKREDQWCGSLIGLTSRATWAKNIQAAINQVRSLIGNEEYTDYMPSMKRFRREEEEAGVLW
Keap1/Nrf2, sequence (Q16236 whole entry, the tested form may be a part): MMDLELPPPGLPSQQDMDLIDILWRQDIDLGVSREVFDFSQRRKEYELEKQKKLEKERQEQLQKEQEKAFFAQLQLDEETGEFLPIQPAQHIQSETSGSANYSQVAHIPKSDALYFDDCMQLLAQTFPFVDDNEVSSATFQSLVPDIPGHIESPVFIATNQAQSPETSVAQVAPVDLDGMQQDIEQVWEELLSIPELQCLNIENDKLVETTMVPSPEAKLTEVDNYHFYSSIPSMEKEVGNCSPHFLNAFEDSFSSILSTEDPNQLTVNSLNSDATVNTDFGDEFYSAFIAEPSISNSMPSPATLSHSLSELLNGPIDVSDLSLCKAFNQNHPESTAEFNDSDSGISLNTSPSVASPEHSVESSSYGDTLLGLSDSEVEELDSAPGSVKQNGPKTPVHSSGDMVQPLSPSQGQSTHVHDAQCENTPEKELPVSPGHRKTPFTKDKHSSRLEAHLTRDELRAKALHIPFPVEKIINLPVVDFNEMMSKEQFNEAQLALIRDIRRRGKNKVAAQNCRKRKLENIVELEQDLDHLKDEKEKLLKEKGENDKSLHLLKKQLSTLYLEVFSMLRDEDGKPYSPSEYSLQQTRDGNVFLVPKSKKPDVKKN
Keap1/Nrf2, sequence (Q14145 whole entry, the tested form may be a part): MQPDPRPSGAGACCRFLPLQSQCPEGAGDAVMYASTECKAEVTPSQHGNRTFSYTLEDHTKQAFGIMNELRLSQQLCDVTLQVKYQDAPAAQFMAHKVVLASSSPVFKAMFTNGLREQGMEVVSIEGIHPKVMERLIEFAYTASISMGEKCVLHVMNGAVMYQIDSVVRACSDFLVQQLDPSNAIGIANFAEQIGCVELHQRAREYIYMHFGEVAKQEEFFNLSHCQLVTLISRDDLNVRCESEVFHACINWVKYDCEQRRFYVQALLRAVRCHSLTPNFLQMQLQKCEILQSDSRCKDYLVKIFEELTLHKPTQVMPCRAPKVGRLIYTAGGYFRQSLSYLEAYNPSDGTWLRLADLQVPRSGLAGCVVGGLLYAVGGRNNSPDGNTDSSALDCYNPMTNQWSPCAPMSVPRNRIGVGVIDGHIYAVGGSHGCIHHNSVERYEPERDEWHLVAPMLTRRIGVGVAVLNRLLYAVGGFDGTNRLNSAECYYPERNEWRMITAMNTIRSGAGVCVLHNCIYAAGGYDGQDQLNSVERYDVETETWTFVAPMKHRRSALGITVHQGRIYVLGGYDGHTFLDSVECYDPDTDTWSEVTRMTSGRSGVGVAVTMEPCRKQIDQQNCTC

## CC(Sc1ccsc1[N+](=O)[O-])C(=O)NCc1ccco1 (stereo unspecified)
[1]
  IC50: > 119 µM (inactive)
Exodeoxyribonuclease V
  IC50: > 119 µM (inactive)

## Cc1c(N)cc(N)cc1C(=O)O
[2]
  EC50: 27.7 µM (active)
Genome polyprotein
  IC50: > 100 µM (active)
Keap1/Nrf2
  AC50: > 52 µM (inactive)
[3]
  EC50: > 300 µM (not active)

## CC(=O)OCC(=O)[C@@]1(O)CC[C@H]2[C@@H]3CCC4=CC(=O)C=C[C@]4(C)[C@@]3(Cl)[C@@H](Cl)C[C@@]21C [DICHLORISONE ACETATE]
[4]
  IC50: < 0.25 µM (active)
[5]
  IC50: > 16 µM (inactive)

## Cc1cccc(C2CC(c3ccccc3)Nc3ncnn32)c1 (stereo unspecified)
HEK293 [6]
  EC50: > 59.6 µM (inactive)
HEK293 [7]
  EC50: > 59.6 µM (inactive)

## O=C(/C=C/c1ccccc1Cl)c1ccccc(=O)c1O
[8]
  EC50: 1.29 µM (active)
[9]
  EC50: 1.61 µM (active)
[10]
  EC50: 1.22 µM (active)
[11]
  EC50: 1.07 µM (active)
[4]
  IC50: 3.72 µM (active)
Streptococcus
  EC50: 9.56 µM (active)
Vero
  CC50: 9.47 µM (active)
[5]
  IC50: 4.43 µM (active)
[12]
  EC50: 6.37 µM (active)
Streptokinase A
  EC50: > 150 µM (not active)
NS3
  IC50: 4.49 µM (active)
